Measured values from US7897182B2, “Composition comprising bamboo extract and the compounds isolated therefrom showing treating and preventing activity for inflammatory and blood circulation disease” (Unigen, Inc., priority 2003, dated 2011).
≈ marks a conversion by molar mass, not a printed value.

What was measured:
iNOS gene expression = iNOS gene expression in LPS-treated RAW 264.7 cells (RT-PCR); type: cell-based, Murine; details: for Inhibition of Gene expression (%) (iNOS): LPS, 24 hours
Experimental: To investigate the inhibiting effect on gene expression, the extract or compound of the present invention was treated to the cell and the RNA extracted therefrom was used in the RT-PCR to evaluate the quantitative gene expression. […] And RNA was extracted by conventional extraction method using Trizol reagent (Gibco BRL) to use in the following reverse transcription-polymerase chain reaction. RT-PCR was performed according to the RT reaction (25° C. 10 min, 48° C. 30 min, 95° C. 5 min, 4° C. 10 min; 1 cycle) and subsequent PCR (50° C. 2 min, 95° C. 10 min, 95° C. 15 sec, 60° C. 1 min, 40 cycles) method well known in the art. As an internal control, 18S ribosomal RNA was used.

HUVEC = assay: Cell toxicity test, modified MTT method, HUVEC; type: cell-based, Human
Experimental: The cell toxicity of tricin compound of Example 5 was tested using modified MTT method (J. Immunological Methods, 119, pp 203-210, 1989).
200 μl of HUVEC (2×10^5 cells/ml) on flat bottom 96-well microtiter plates (Nunc, Sweden) were treated with tricin prepared in various concentrations and cultured at 37° C. for 24 hours.
50 μl of MTT solution (1 mg/ml) was added to each well and incubated at 37° C. for 4 hours. And then supernatant was removed.
To detect formazan crystal, 100 μl of DMSO was also added to each well and the colorigenic analysis was performed at 550 nm using microplate reader (Power wave-XS, Bio-Tek, USA).

[1] = system: LDL receptor defected mouse; assay: Blood lipid in LDL defected mouse on high fat diet; type: in vivo; details: lovastatin 4 mg/kg oral
Experimental: (§1) Eight-weeks old male LDL receptor defected mouse accumulated to high fat feed were divided into two dose administration groups and one high dosing group of which group consist of six mice per group, Injectable distilled water was used as a negative control group, lovastain well known to be as an atheriosclerosis treating agent was administrated in an amount of 4 mg/kg per body weight as a positive control group, Bamboo was administrated to two treatment group in an amount of 50 and 100 mg/kg per body weight respectively, and one high dosing treatment group in an amount of 500 mg/kg per body weight for 20 weeks by way of compulsory oral administration after weighing the body weight twice a day (See Table 6).
And then blood plasma was isolated by centrifugation at the speed of 11,000 g for 10 minutes and left alone at −70° C. before use. The value of blood lipid was determined by three categories i.e., TC (Total cholesterol), HDL-C (High-density lipoprotein cholesterol) and TG (Triglycerides) at KRIBB in Korea.

[2] = system: LDL receptor defected mouse; assay: Arteriosclerosis lesion area (Oil red O, aortic valve) in LDL defected mouse; type: in vivo; details: positive control, lovastatin 4 mg/kg
Experimental: During the experiment, the environment of the cage was maintained to the temperature of 23±2° C. and the relative humidity of […] under the artificial lamp for 12 hours, and less than five mice were bred in each mouse cage providing with free access to water (disinfected distilled water) and normal fatty feed (Harlan 2018S, Indianapolis USA).
as §1, with “6). […]” for “6).”
The calculation of lesion area was performed by staining the lesion formed at the position between 3rd cervical […] and aortic valve and photocopying and then the lesion area was calculated by using computer-assisted morphometry (TDI microscope Image Analyzer, USA) comparing with control group.

VEGF gene expression = assay: VEGF mRNA expression in HUVEC (quantitative PCR); type: cell-based, Human; details: for mRNA expression (fold), VEGF: HUVEC, control = 1
Experimental: (§2) RNA was isolated from HUVEC cell by Rneasy mini kit (cat#74103, Qiagen Co.) according to the manufacturer's instruction. And RT-PCT reaction was performed by using quantitative PCR method (SDS 7700, Applied biosystems Co., U.S.A.).
(§3) 5 μl of cDNA product obtained in the reverse transcription (RT) was aliquoted into each well of 96-well plate and then the mixture containing 5.6 mM MgCl2, 1×PCR buffer, 2 mM dNTP, 0.05% gelatin, 1 μM of a pair of each target gene primer or 0.16 μM of house keeping gene primer, 0.5 μM of target gene probe or 0.025 μM of housekeeping gene probe, 1.25 U of Taq polymerase was added thereto for polymerase chain reaction (PCR) (50° C. 2 min, 95° C. 10 min, 95° C. 15 sec, 60° C. 1 min, 40 cycles).
(§4) As the result, final cT value was read and calculated.

eNOS gene expression = assay: eNOS mRNA expression in HUVEC (quantitative PCR); type: cell-based, Human; details: for mRNA expression (fold), eNOS: HUVEC, control = 1
Experimental: as §2, §3, §4

RAW 264.7 cells = assay: Cell viability at the tricin concentrations of the NO test (Table 9)
u-PA gene expression = assay: u-PA mRNA expression in HUVEC (quantitative PCR); type: cell-based, Human; details: for mRNA expression (fold), u-PA: HUVEC, control = 1
Experimental: as §2, §3, §4

NO production = assay: Inhibition of NO production in LPS-treated RAW 264.7 cells (Griess reagent); type: cell-based, Murine
Experimental: Murine macrophage cell line RAW 264.7 cell (ATCC, Rockville, Md., USA) were grown in DMEM (Gibco BRL Co., Ltd., USA), supplemented with 2.0 mM L-arginine, 100 μg/ml penicillin-streptomycin and 10% fetal bovine serum at 37° C. in 5% CO2 and 95% air condition in humidified incubator.
To test the inhibiting activity of bamboo extract and the compound isolated therefrom on nitric oxide (NO), which is one of inflammatory factors, the increase of NO was determined in the cells treated with extract or compound of the present invention.
200 μl of RAW 264.7 cells (1×10^6 cells/ml) were seeded onto each well of 96-well microtiter plate (Nunc, Sweden) and incubated for 3 hours in DMEM media containing 10% FBS. […]
And then 100 μl of cell supernatant of each well was transferred to new 96 well plate and 50 μl of Griess reagent (0.1% N-(1-naphtyl)ethylenediamine 2HCl, 1% sulfanilamide in 5% conc. H3PO4 in H2O) was added thereto followed by incubating for 10 mins at R.T. The absorbance was measured at 540 or 550 nm using ELISA reader (Power wave-XS, Bio-Tek, USA).

[3] = Mus musculus, RAW264.7, read-out: NO inhibition rate (%)

In the case of `COc1cc(/C=C/C(=O)CC(=O)/C=C/c2ccc(O)c(OC)c2)ccc1O` [Curcumin, curcumin], the “Comparative iNOS expression (% of control, DMSO)” value (iNOS gene expression; 0.032 μg/ml) is reported as 80.5 % of control, the “Inhibition of Gene expression (%) (iNOS)” value (iNOS gene expression; 0.032 μg/ml) is reported as 40% and the “Comparative iNOS expression (% of control, DMSO)” value (iNOS gene expression; 0.16 μg/ml) is reported as 75.7 % of control. For the same compound, the “Inhibition of Gene expression (%) (iNOS)” value (iNOS gene expression; 0.16 μg/ml) was 40%, the “Comparative iNOS expression (% of control, DMSO)” value (iNOS gene expression; 0.8 μg/ml) was 64.4 % of control and the “Inhibition of Gene expression (%) (iNOS)” value (iNOS gene expression; 0.8 μg/ml) was 40%. For the same compound, the “Comparative iNOS expression (% of control, DMSO)” value (iNOS gene expression; 4 μg/ml) was 49.9 % of control, the “Inhibition of Gene expression (%) (iNOS)” value (iNOS gene expression; 4 μg/ml) was 90% and the “Inhibition of Gene expression (%) (iNOS)” value (iNOS gene expression; 12.5 μg/ml) was 90%. The “Comparative iNOS expression (% of control, DMSO)” value (iNOS gene expression; 20 μg/ml) was 1.3 % of control, the IC50 (iNOS gene expression; Mus musculus, RAW264.7, calculated from the expression data, read-out: IC50 (μg/ml) on iNOS gene expression) was 5.3 µg/mL (≈ 14.4 µM) and the “concentration at which iNOS gene expression is inhibited by 90%” value (iNOS gene expression; real time-gene expression analysis) was 4 µg/mL.

With `O=C(O)/C=C/c1ccc(O)cc1` [p-coumaric acid] the “cellular toxicity, in words” value (HUVEC) was “no cellular toxicity”.

Compound `CC[C@H](C)C(=O)O[C@H]1C[C@@H](C)C=C2C=C[C@H](C)[C@H](CC[C@@H]3C[C@@H](O)CC(=O)O3)[C@H]21` [Lovastatin, lovastatin] has an HDL-C [1] of 25.00 ± 7.07, an LDL-C [1] of 3485.00 ± 304.06 and a TC [1] of 3750.00 ± 42.43. For the same compound, the TG [1] was 300.00 ± 14.14 and the “inhibition of the formation of arteriosclerosis compared with control group” value [2] was “about 47%”.

For `COc1cc(-c2cc(=O)c3c(O)cc(O)cc3o2)cc(OC)c1O` [tricin], the “expression of VEGF in HUVEC, in words” value (VEGF gene expression) was “increased”, the “mRNA expression (fold), VEGF” value (VEGF gene expression; tricin 0.5 μg/ml) was 2.046 fold and the “mRNA expression (fold), VEGF” value (VEGF gene expression; tricin 1.0 μg/ml) was 1.469 fold. The “mRNA expression (fold), VEGF” value (VEGF gene expression; tricin 5.0 μg/ml) was 1.545 fold, the cellular toxicity (HUVEC; HUVEC, 5 μg/ml, 24 hours, MTT) was 51% and the “expression of eNOS in HUVEC, in words” value (eNOS gene expression) was “increased”. For the same compound, the “mRNA expression (fold), eNOS” value (eNOS gene expression; tricin 0.5 μg/ml) was 3.024 fold, the “mRNA expression (fold), eNOS” value (eNOS gene expression; tricin 1.0 μg/ml) was 4.711 fold and the “mRNA expression (fold), eNOS” value (eNOS gene expression; tricin 5.0 μg/ml) was 0.452 fold. The “toxicity at the active concentrations, in words” value (RAW 264.7 cells; 25, 12.5 and 6.5 μg/ml) was “no toxicity”, the “Cell viability (%)” value (RAW 264.7 cells; tricin 1.625 μg/ml) was 126% and the “Cell viability (%)” value (RAW 264.7 cells; tricin 3.25 μg/ml) was 99%. For the same compound, the “Cell viability (%)” value (RAW 264.7 cells; tricin 6.5 μg/ml) was 96%, the “Cell viability (%)” value (RAW 264.7 cells; tricin 12.5 μg/ml) was 92% and the “Cell viability (%)” value (RAW 264.7 cells; tricin 25 μg/ml) was 80%. For the same compound, the “Cell viability (%)” value (RAW 264.7 cells; tricin 50 μg/ml) was 49%, the “expression of u-PA gene in HUVEC, in words” value (u-PA gene expression) was “increased” and the “mRNA expression (fold), u-PA” value (u-PA gene expression; tricin 0.5 μg/ml) was 1.619 fold. For the same compound, the “mRNA expression (fold), u-PA” value (u-PA gene expression; tricin 1.0 μg/ml) was 1.103 fold, the “mRNA expression (fold), u-PA” value (u-PA gene expression; tricin 5.0 μg/ml) was 2.962 fold and the “NO inhibition, in words” value (NO production; 25, 12.5 and 6.5 μg/ml) was “strong NO inhibition rate”. It also gave an inhibition at 1.625 µg/mL (NO production; [3]) of 25.9 ± 0.006%, an inhibition at 3.25 µg/mL (NO production; [3]) of 38.1 ± 0.005% and an inhibition at 6.5 µg/mL (NO production; [3]) of 52 ± 0.015%. The inhibition at 25 µg/mL (NO production; [3]) was 74.6 ± 0.009%, the inhibition at 50 µg/mL (NO production; [3]) was 49.7 ± 0.007% and the inhibition at 12.5 µg/mL (NO production; Mus musculus, RAW264.7, tricin 12.5 μg/ml, read-out: NO inhibition rate (%)) was 71.2 ± 0.003%.
